The source of these data is the supplement of paper PMC6965134.

The series is described as follows: TIMS collisional cross section (CCS, N2) of the lipid ion; higher = larger ion cross section. Particulars: ionization mode: positive, one isomer drawn. As for the experimental part:
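Lipid extracts of human plasma (NIST SRM 1950), mouse liver and HeLa cells were separated by nanoflow C18 LC (30 min gradient, 60 °C) and analysed by TIMS-PASEF on a timsTOF Pro in positive ion mode. Ion mobility was calibrated with the Agilent tuning mix and converted to collisional cross sections (Mason–Schamp) in N2 drift gas. Lipids were identified by MS/MS (SimLipid) and manual curation. SMILES are LIPID MAPS representative structures for the annotated lipid.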

± gives the standard deviation of the averaged measurements.

`CCCCCCC/C=C\CCCCCCCC(=O)OC[C@H](COC(=O)CCCCCCC/C=C\CCCCCCCC)OC(=O)CCCCCCCCCCCCCCCCC` [TG 17:1_18:0_18:1] (ion (formula + adduct): [C56H104O6+NH4] 1+): where the note is “sample type: Liver”, the “TIMS collisional cross section” value amounted to 325.6 Å².
Same read-out and setting: in the case of `CCCCC/C=C\CCCCCCCC(=O)OC[C@H](COC(=O)CCCCCCCCCCCCCCC)OC(=O)CCCCCCCCCCCCCCC` [TG 15:1_16:0_16:0] (ion (formula + adduct): [C50H94O6+NH4] 1+) it was 309.7 Å²; in that of `CCCCCCCC/C=C\CCCCCCCCCC(=O)O[C@H](COC(=O)CCCCCCCCCCCCCCC)COP(=O)([O-])OCC[N+](C)(C)C` [PC 16:0_20:1@] (ion (formula + adduct): [C44H86NO8P+H] 1+), 295.2 Å².
`CCCCCCCCCC/C=C\CCCCCCCC(=O)OC[C@@H](O)COP(=O)([O-])OCC[N+](C)(C)C` [LPC 20:1_0:0] (ion (formula + adduct): [C28H56NO7P+H] 1+): the “TIMS collisional cross section” value was determined as 239 Å² (sample type: Liver) and 239.3 Å² (sample type: plasma).
Consider `CCCCC/C=C\C/C=C\C/C=C\C/C=C\CCCC(=O)O[C@H](COC(=O)CCCCCCCCCCCCCCC)COP(=O)(O)OCCN` [PE 16:0_20:4] (ion (formula + adduct): [C41H74NO8P+H] 1+), for which the “TIMS collisional cross section” value by setting is: (sample type: HeLa) 276.1 ± 1.1 Å²; (sample type: Liver) 277.25 ± 0.49 Å².
Regarding `CCCCCCCC/C=C\C/C=C\C/C=C\CCCC(=O)O[C@H](COC(=O)CCCCCCC/C=C\CCCCCCCC)COP(=O)([O-])OCC[N+](C)(C)C` [PC 18:1_20:3] (ion (formula + adduct): [C46H84NO8P+H] 1+), the “TIMS collisional cross section” value is recorded as 294 Å² (sample type: HeLa) and 293.7 Å² (sample type: Liver).
`CC/C=C\C/C=C\C/C=C\C/C=C\C/C=C\CCCC(=O)O[C@H](COCCCCCCCCCCCCCCCC)COP(=O)([O-])OCC[N+](C)(C)C` [PC O- 16:0@_20:5] (ion (formula + adduct): [C44H80NO7P+H] 1+): where the note is “sample type: HeLa”, the “TIMS collisional cross section” value amounted to 287.7 Å².
With `CCCCCCC/C=C\CCCCCCCC(=O)OC[C@H](COP(=O)([O-])OCC[N+](C)(C)C)OC(=O)CCCCCCC/C=C\CCCCCCCC` [PC 17:1_18:1] (ion (formula + adduct): [C43H82NO8P+H] 1+), where the note is “sample type: HeLa”, the “TIMS collisional cross section” value turned out to be 289.2 Å².
Regarding `CCCCCCCCCCCCCCCCCCCCCC(=O)OC[C@H](CO)OC(=O)CCCCCCCCCCCCCCCCCCCCC` [DG 22:0_22:0_0:0] (ion (formula + adduct): [C47H92O5+NH4] 1+), the “TIMS collisional cross section” value (sample type: plasma) was 301.3 Å².
Regarding `CC/C=C\C/C=C\C/C=C\C/C=C\C/C=C\CCCCCC(=O)O[C@@H](CO)COC(=O)CCCCCCCCCCCCCCC` [DG 16:0_22:5_0:0] (ion (formula + adduct): [C41H70O5+NH4] 1+), the “TIMS collisional cross section” value runs as follows: (sample type: HeLa) 266.6 Å²; (sample type: Liver) 270 Å².
On to `CCCCC/C=C\C/C=C\CCCCCCCC(=O)O[C@@H](CO)COC(=O)CCCCCCC/C=C\CCCCCC` [DG 16:1_18:2_0:0] (ion (formula + adduct): [C37H66O5+NH4] 1+), for which the “TIMS collisional cross section” value stood at 253.1 Å² (sample type: Liver) and 253.8 Å² (sample type: plasma).
The corresponding values for `CCCCC/C=C\C/C=C\CCCCCCCC(=O)OC[C@@H](COC(=O)CCCCCCCCCCCCCCC)OC(=O)CCCCCCC/C=C\CCCCCCCC` [TG 16:0_18:1_18:2] (ion (formula + adduct): [C55H100O6+NH4] 1+) are 314.1 Å² and 319.7 Å².
Turning to `CCCCCCCC/C=C\CCCCCCCC(=O)OC[C@@H](COC(=O)CCCCCCCCCCC)OC(=O)CCCCCCCCCCCCCCC` [TG 12:0_16:0_18:1] (ion (formula + adduct): [C49H92O6+NH4] 1+), where the note is “sample type: HeLa”, the “TIMS collisional cross section” value is listed as 305.7 Å².
On to `CCCCC/C=C\C/C=C\C/C=C\C/C=C\CCCC(=O)OC[C@@H](COC(=O)CCCCCCCCCCC)OC(=O)CCCCCCCCCCCCCCC` [TG 12:0_16:0_20:4] (ion (formula + adduct): [C51H90O6+NH4] 1+), for which the “TIMS collisional cross section” value (sample type: plasma) is 307.4 Å².
In the case of `CCCCCCCCCCCCCCCCCC(=O)OC[C@H](CO)OC(=O)CCCCCCCCCCCCCCC` [DG 18:0_16:0_0:0] (ion (formula + adduct): [C37H72O5+NH4] 1+), the “TIMS collisional cross section” value reads like this: (sample type: Liver) 265.6 Å²; (sample type: plasma) 265.6 Å².
On to `CCCCCC/C=C/CCCCCCCCCC(=O)OC[C@H](CO)OC(=O)CCCCCCCCCCCCCCC` [DG 18:1_16:0_0:0] (ion (formula + adduct): [C37H70O5+NH4] 1+), for which the “TIMS collisional cross section” value is 262.87 ± 0.64 Å² (sample type: HeLa), 262.85 ± 0.21 Å² (sample type: Liver) and 263.1 Å² (sample type: plasma).
On to `CCCCC/C=C\C/C=C\C/C=C\C/C=C\CCCC(=O)O[C@@H](CO)COC(=O)CCCCCCCCCCCCCCC` [DG 16:0_20:4_0:0] (ion (formula + adduct): [C39H68O5+NH4] 1+), for which the “TIMS collisional cross section” value reads like this: (sample type: HeLa) 263.4 Å²; (sample type: Liver) 263.8 Å²; (sample type: plasma) 263.6 Å².
As for `CCCCC/C=C\C/C=C\C/C=C\C/C=C\CCCC(=O)O[C@H](COC(=O)CCCCCCCCCCCCCCCC)COP(=O)([O-])OCC[N+](C)(C)C` [PC 17:0@_20:4] (ion (formula + adduct): [C45H82NO8P+H] 1+), the “TIMS collisional cross section” value (sample type: plasma) amounted to 292.4 Å².
Consider `CC/C=C\C/C=C\C/C=C\CCCCCCCC(=O)O[C@@H](CO)COC(=O)CCCCCCC/C=C\CCCCCCCC` [DG 18:1_18:3_0:0] (ion (formula + adduct): [C39H68O5+NH4] 1+), for which the “TIMS collisional cross section” value came to 258.6 Å² (sample type: HeLa) and 258.8 Å² (sample type: plasma).
As to `CC/C=C\C/C=C\C/C=C\C/C=C\C/C=C\CCCCCC(=O)OC[C@@H](COC(=O)CCCCCCCCCCCCCCC)OC(=O)CCCCCCCCCCCCCCCCC` [TG 16:0_18:0_22:5] (ion (formula + adduct): [C59H104O6+NH4] 1+), the “TIMS collisional cross section” value (sample type: HeLa) is on record as 330.6 Å².
For the compound `CC/C=C\C/C=C\C/C=C\C/C=C\C/C=C\C/C=C\CCC(=O)O[C@H](COC(=O)CCCC/C=C\C/C=C\C/C=C\CCCCC)COP(=O)([O-])OCC[N+](C)(C)C` [PC 18:3_22:6@] (ion (formula + adduct): [C48H78NO8P+H] 1+), the “TIMS collisional cross section” value (sample type: Liver) turned out to be 289.6 Å².
Turning to `CCCCCCCC/C=C\CCCCCCCC(=O)O[C@H](CO/C=C\CCCCCCCCCCCCCC)COP(=O)([O-])OCC[N+](C)(C)C` [PC P- 16:0@_18:1] (ion (formula + adduct): [C42H82NO7P+H] 1+), where the note is “sample type: plasma”, the “TIMS collisional cross section” value is 287.7 Å².
On the same count and under the same terms, the figure for `CCCCC/C=C\C/C=C\CCCCCCCCCCCC(=O)OC[C@@H](O)COP(=O)([O-])OCC[N+](C)(C)C` [LPC 22:2] (ion (formula + adduct): [C30H58NO7P+H] 1+) is 242 Å².
Regarding `CCCCCC/C=C\CCCCCCCC(=O)OC[C@H](CO)OC(=O)CCCCCCC/C=C\CCCCCCCC` [DG 16:1_18:1_0:0] (ion (formula + adduct): [C37H68O5+NH4] 1+), the “TIMS collisional cross section” value (sample type: Liver) is reported as 260 Å² and the “TIMS collisional cross section” value (sample type: plasma) turned out to be 258.75 ± 1.2 Å².
For `CCCCC/C=C\C/C=C\C/C=C\CCCCCCC(=O)O[C@@H](CO)COC(=O)CCCCCCC/C=C\CCCCCCCC` [DG 18:1_20:3_0:0] (ion (formula + adduct): [C41H72O5+NH4] 1+), the “TIMS collisional cross section” value (sample type: HeLa) came to 266.8 Å² and the “TIMS collisional cross section” value (sample type: Liver) turned out to be 267 Å².
`CCCCCCCCCCCCCCCCCCCCOC[C@@H](O)COP(=O)([O-])OCC[N+](C)(C)C` [LPC O- 20:0] (ion (formula + adduct): [C28H60NO6P+H] 1+): the “TIMS collisional cross section” value (sample type: plasma) is recorded as 245.9 Å².
In the case of `CCCCC/C=C\C/C=C\C/C=C\C/C=C\CCCCCC(=O)OC[C@@H](COC(=O)CCCCCCCCCCCCCCCCC)OC(=O)CCCCCCC/C=C\C/C=C\CCCCC` [TG 18:0_18:2_22:4] (ion (formula + adduct): [C61H106O6+NH4] 1+), the “TIMS collisional cross section” value (sample type: HeLa) came to 335.4 Å².
Take `CCCC/C=C\CCCCCCCC(=O)OC[C@H](COC(=O)CCCCCCC/C=C\C/C=C\CCCCC)OC(=O)CCCCCCC/C=C\CCCCCC` [TG 14:1_16:1_18:2] (ion (formula + adduct): [C51H90O6+NH4] 1+): the “TIMS collisional cross section” value (sample type: HeLa) is recorded as 306.1 Å², the “TIMS collisional cross section” value (sample type: Liver) is 304.7 Å² and the “TIMS collisional cross section” value (sample type: plasma) turned out to be 304.5 Å².
Take `CCCCC/C=C\C/C=C\CCCCCCCC(=O)O[C@@H](CO)COC(=O)CCCCCCC/C=C\CCCCCCCC` [DG 18:1_18:2_0:0] (ion (formula + adduct): [C39H70O5+NH4] 1+): the “TIMS collisional cross section” value runs as follows: (sample type: HeLa) 261.1 Å²; (sample type: Liver) 261.3 Å²; (sample type: plasma) 261.2 Å².
For `CC/C=C\C/C=C\C/C=C\C/C=C\C/C=C\CCCC(=O)O[C@@H](CO)COC(=O)CCCCCCC/C=C\CCCCCCCC` [DG 18:1_20:5_0:0] (ion (formula + adduct): [C41H68O5+NH4] 1+), the “TIMS collisional cross section” value (sample type: HeLa) is reported as 263.8 Å².
In the case of `CCCCCCCCCCCCCCCCCC(=O)O[C@H](CO)COP(=O)(O)OCCN` [LPE 18:0] (ion (formula + adduct): [C23H48NO7P+H] 1+), the “TIMS collisional cross section” value is, setting by setting: (sample type: HeLa) 221.7 Å²; (sample type: Liver) 222 Å².
Consider `CCCCC/C=C\C/C=C\C/C=C\C/C=C\CCCC(=O)O[C@H](COC(=O)CCCCCCC/C=C\CCCCCC)COP(=O)([O-])OCC[N+](C)(C)C` [PC 16:1_20:4] (ion (formula + adduct): [C44H78NO8P+H] 1+), for which the “TIMS collisional cross section” value was determined as 285.8 Å² (sample type: HeLa) and 286.4 Å² (sample type: plasma).
